Test results reported in publication PMC10590383, “Repurposing conformational changes in ANL superfamily enzymes to rapidly generate biosensors for organic and amino acids” (Nature Communications, 2023).

Key:
Type in all cases: biochemical
[1] = Dose–response curve of purified GECFINDERs with leucine
Description: (§1) Fig. 4 Engineering ligand specificity of GrsA-PheA for generating […]s. a The selectivity-conferring code of Phe and Leu A domains. b–f Dose–response curve of purified […]s with increasing concentrations of ligands in 100 mM Tris-HCl buffer (pH=7.5). All data shown are means ± S.D. (n = 3 biologically independent samples). g A series of […] reactions was tested to show the […]’s specificity with 20 proteinogenic amino acids. The values on the heatmap represent the ΔF/F0 value normalized to each […]’s maximal ΔF/F0 value ((ΔF/F0)/maximal ΔF/F0). The concentrations of 20 amino acids were 100 μM. The color indicates the average value of three independent biological replicates after 15 min. All data shown are means ± S.D. (n = 3 biologically independent samples). Source data are provided as a Source data file.
(§2) The study conducted dose–response curve, substrate specificity, and fluorescent spectrum analyses in 100-mM Tris buffer (pH = 7.5), while pH stability experiments were performed in 100-mM Tris buffer at three different pH values (6.5, 7.5, and 8.5) at room temperature. […] protein at a concentration of 0.75 μM, various small molecule concentrations, 1 mM ATP, and 2.5 mM MgCl2 were used in the experiments. Fluorescent signals were detected using a Microplate Reader (Synergy H4, Bio Tek) at an excitation/emission wavelength of 460 nm/510 nm or 480 nm/510 nm. The dose-response curve was determined immediately after the addition of the analyte. The total duration of the measurement was 15 min, with readings taken at one-minute intervals. The dose-response curve was plotted using the fluorescence values obtained after achieving stability in the fluorescence signal. The dose-response curves were fitted using the logistic model LOGISTIC5 available in Origin 2021, which could provide a more adequate fit to asymmetric dose-response data[62],[63]. Excitation spectra were scanned from 300 to 540 nm with a step size of 5 nm, and the emission wavelength was set to 560 nm. Emission spectra were scanned from 470 to 700 nm with a step size of 5 nm, and the excitation wavelength was set to 450 nm. The thermal stability of […] was analyzed using the UNcle multifunctional protein stability analysis system. Measurements were performed in 20 mM MOPS buffer with 2 mM DTT at a sample concentration of 1 mg/mL. Absolute fluorescence quantum yields were measured using an absolute photoluminescence quantum yield spectrometer (FS5, Edinburgh).

[2] = Substrate (ligand) specificity of […]s; conditions: for AVE of Repeat 1-3, sensor signal with ligand (Supplementary Fig. 7 c): 1 mM ligand, Control AVE 12117.3; for fluorescence response of GECFINDER to each substrate, AVE of 3 repeats: Supplementary Fig. 3 c, substrate specificity
Description: as §1
Ligand specificity is an important biosensors feature. Generally, the NRPS A domains have high specificity for their substrates because they are the first “gatekeeper” of NRPSs and ensure that the correct monomers are activated and thioesterified[32],[33]. Therefore, we speculated that this property would be inherited by our […]s because the ligand-binding pockets were unchanged during the […] creation process. Twenty proteinogenic amino acids were used to test the ligand specificity of […]s. […] We also investigated the dependence of […]s on Mg^2+ and ATP (Supplementary Fig. 4). […] This phenomenon corroborates with the distinct conformational changes observed in Hinge A of Nt4CL2 (Mg^2++ATP) (PDB ID: 5BSM) and Nt4CL2 (Coumaroyl-AMP) (PDB ID: 5BST) reported in the literature (Supplementary Fig. 4k), where the direction of motion in hinge A differs. […] During the determination of quantum yield, we observed that the absolute quantum yield of the […] variants ranged from 0.3 to 0.6 upon addition of the respective substrates, which show no significant difference with that reported in literature. The specific values are provided in Supplementary Table 2.
as §2

[3] = Dose–response curve of purified […]s with tyrosine
Description: as §1, §2

Compound: CC(C)C[C@H](N)C(=O)O [Leu]
- AVE, dose-response Fig. 4 b ([1]; substrate Leu 0.001 μM): -7.112e-17
- AVE, dose-response Fig. 4 b ([1]; substrate Leu 0.005 μM): 0.003877
- AVE, dose-response Fig. 4 b ([1]; substrate Leu 0.01 μM): 0.02311
- AVE, dose-response Fig. 4 b ([1]; substrate Leu 0.05 μM): 0.04234
- AVE, dose-response Fig. 4 b ([1]; substrate Leu 0.1 μM): 0.03637
- AVE, dose-response Fig. 4 b ([1]; substrate Leu 0.5 μM): 0.02815
- AVE, dose-response Fig. 4 b ([1]; substrate Leu 1 μM): 0.02962
- AVE, dose-response Fig. 4 b ([1]; substrate Leu 5 μM): 0.0138
- AVE, dose-response Fig. 4 b ([1]; substrate Leu 10 μM): 0.1049
- AVE, dose-response Fig. 4 b ([1]; substrate Leu 25 μM): 0.1731
- AVE, dose-response Fig. 4 b ([1]; substrate Leu 50 μM): 0.2052
- AVE, dose-response Fig. 4 b ([1]; substrate Leu 100 μM): 0.2136
- AVE, dose-response Fig. 4 c ([1]; substrate Leu 0.5 μM): 6.794e-17
- AVE, dose-response Fig. 4 c ([1]; substrate Leu 1 μM): 0.0405
- AVE, dose-response Fig. 4 c ([1]; substrate Leu 2 μM): 0.06186
- AVE, dose-response Fig. 4 c ([1]; substrate Leu 5 μM): 0.1266
- AVE, dose-response Fig. 4 c ([1]; substrate Leu 10 μM): 0.1121
- AVE, dose-response Fig. 4 c ([1]; substrate Leu 20 μM): 0.1733
- AVE, dose-response Fig. 4 c ([1]; substrate Leu 50 μM): 0.2857
- AVE, dose-response Fig. 4 c ([1]; substrate Leu 100 μM): 0.4006
- AVE, dose-response Fig. 4 c ([1]; substrate Leu 200 μM): 0.5877
- AVE, dose-response Fig. 4 c ([1]; substrate Leu 500 μM): 0.7587
- AVE, dose-response Fig. 4 c ([1]; substrate Leu 750 μM): 0.8241
- AVE, dose-response Fig. 4 c ([1]; substrate Leu 1000 μM): 0.7953
- AVE, dose-response Fig. 4 d ([1]; substrate Leu 0.005 μM): -5.262e-17
- AVE, dose-response Fig. 4 d ([1]; substrate Leu 0.01 μM): 0.03426
- AVE, dose-response Fig. 4 d ([1]; substrate Leu 0.1 μM): 0.06576
- AVE, dose-response Fig. 4 d ([1]; substrate Leu 1 μM): 0.08826
- AVE, dose-response Fig. 4 d ([1]; substrate Leu 5 μM): 0.1792
- AVE, dose-response Fig. 4 d ([1]; substrate Leu 10 μM): 0.2348
- AVE, dose-response Fig. 4 d ([1]; substrate Leu 50 μM): 0.4576
- AVE, dose-response Fig. 4 d ([1]; substrate Leu 100 μM): 0.5636
- AVE, dose-response Fig. 4 d ([1]; substrate Leu 200 μM): 0.7427
- AVE, dose-response Fig. 4 d ([1]; substrate Leu 500 μM): 0.9952
- AVE, dose-response Fig. 4 d ([1]; substrate Leu 750 μM): 1.079
- AVE, dose-response Fig. 4 d ([1]; substrate Leu 1000 μM): 1.107
- fluorescence response of GECFINDER, AVE of 3 repeats ([1]; Supplementary Fig. 3 a, Leu 0.001 μM): 0
- fluorescence response of GECFINDER, AVE of 3 repeats ([1]; Supplementary Fig. 3 a, Leu 0.005 μM): 0.02218
- fluorescence response of GECFINDER, AVE of 3 repeats ([1]; Supplementary Fig. 3 a, Leu 0.01 μM): 0.03478
- fluorescence response of GECFINDER, AVE of 3 repeats ([1]; Supplementary Fig. 3 a, Leu 0.1 μM): 0.05423
- fluorescence response of GECFINDER, AVE of 3 repeats ([1]; Supplementary Fig. 3 a, Leu 1 μM): 0.08086
- fluorescence response of GECFINDER, AVE of 3 repeats ([1]; Supplementary Fig. 3 a, Leu 10 μM): 0.1724
- fluorescence response of GECFINDER, AVE of 3 repeats ([1]; Supplementary Fig. 3 a, Leu 50 μM): 0.3353
- fluorescence response of GECFINDER, AVE of 3 repeats ([1]; Supplementary Fig. 3 a, Leu 100 μM): 0.4583
- fluorescence response of GECFINDER, AVE of 3 repeats ([1]; Supplementary Fig. 3 a, Leu 500 μM): 0.754
- fluorescence response of GECFINDER, AVE of 3 repeats ([1]; Supplementary Fig. 3 a, Leu 1000 μM): 0.8727
- fluorescence response of GECFINDER, AVE of 3 repeats ([1]; Supplementary Fig. 3 a, Leu 5000 μM): 1.081
- fluorescence response of GECFINDER, AVE of 3 repeats ([1]; Supplementary Fig. 3 a, Leu 10000 μM): 0.9665
- fluorescence response of GECFINDER, AVE of 3 repeats ([1]; Supplementary Fig. 3 b, Leu 0.001 μM): 4.279e-17
- fluorescence response of GECFINDER, AVE of 3 repeats ([1]; Supplementary Fig. 3 b, Leu 0.005 μM): 0.01278
- fluorescence response of GECFINDER, AVE of 3 repeats ([1]; Supplementary Fig. 3 b, Leu 0.01 μM): 0.01795
- fluorescence response of GECFINDER, AVE of 3 repeats ([1]; Supplementary Fig. 3 b, Leu 0.1 μM): 0.04976
- fluorescence response of GECFINDER, AVE of 3 repeats ([1]; Supplementary Fig. 3 b, Leu 1 μM): 0.111
- fluorescence response of GECFINDER, AVE of 3 repeats ([1]; Supplementary Fig. 3 b, Leu 10 μM): 0.3678
- fluorescence response of GECFINDER, AVE of 3 repeats ([1]; Supplementary Fig. 3 b, Leu 50 μM): 0.7094
- fluorescence response of GECFINDER, AVE of 3 repeats ([1]; Supplementary Fig. 3 b, Leu 100 μM): 0.9192
- fluorescence response of GECFINDER, AVE of 3 repeats ([1]; Supplementary Fig. 3 b, Leu 500 μM): 1.615
- fluorescence response of GECFINDER, AVE of 3 repeats ([1]; Supplementary Fig. 3 b, Leu 1000 μM): 1.882
- fluorescence response of GECFINDER, AVE of 3 repeats ([1]; Supplementary Fig. 3 b, Leu 5000 μM): 2.296
- fluorescence response of GECFINDER, AVE of 3 repeats ([1]; Supplementary Fig. 3 b, Leu 10000 μM): 2.333
- AVE of Repeat 1-3, sensor signal with ligand (Supplementary Fig. 7 c) [2]: 12093
- fluorescence response of GECFINDER to each substrate, AVE of 3 repeats [2]: -0.01092

Compound: N[C@@H](Cc1ccc(O)cc1)C(=O)O [Tyr]
- AVE, dose-response Fig. 4 b ([3]; substrate Tyr 0.5 μM): 7.517e-17
- AVE, dose-response Fig. 4 b ([3]; substrate Tyr 1 μM): 0.02259
- AVE, dose-response Fig. 4 b ([3]; substrate Tyr 5 μM): 0.05606
- AVE, dose-response Fig. 4 b ([3]; substrate Tyr 10 μM): 0.0659
- AVE, dose-response Fig. 4 b ([3]; substrate Tyr 20 μM): 0.09543
- AVE, dose-response Fig. 4 b ([3]; substrate Tyr 50 μM): 0.2237
- AVE, dose-response Fig. 4 b ([3]; substrate Tyr 100 μM): 0.3812
- AVE, dose-response Fig. 4 b ([3]; substrate Tyr 200 μM): 0.5926
- AVE, dose-response Fig. 4 b ([3]; substrate Tyr 250 μM): 0.6977
- AVE, dose-response Fig. 4 b ([3]; substrate Tyr 500 μM): 1.046
- AVE, dose-response Fig. 4 b ([3]; substrate Tyr 750 μM): 1.209
- AVE, dose-response Fig. 4 b ([3]; substrate Tyr 1000 μM): 1.242
- AVE, dose-response Fig. 4 e ([3]; substrate Tyr 0.1 μM): 0
- AVE, dose-response Fig. 4 e ([3]; substrate Tyr 0.2 μM): 0.01578
- AVE, dose-response Fig. 4 e ([3]; substrate Tyr 1 μM): 0.04154
- AVE, dose-response Fig. 4 e ([3]; substrate Tyr 2 μM): 0.05025
- AVE, dose-response Fig. 4 e ([3]; substrate Tyr 10 μM): 0.1198
- AVE, dose-response Fig. 4 e ([3]; substrate Tyr 20 μM): 0.1707
- AVE, dose-response Fig. 4 e ([3]; substrate Tyr 100 μM): 0.4124
- AVE, dose-response Fig. 4 e ([3]; substrate Tyr 200 μM): 0.5306
- AVE, dose-response Fig. 4 e ([3]; substrate Tyr 500 μM): 0.6788
- AVE, dose-response Fig. 4 e ([3]; substrate Tyr 1000 μM): 0.7749
- AVE, dose-response Fig. 4 e ([3]; substrate Tyr 1500 μM): 0.7754
- AVE, dose-response Fig. 4 e ([3]; substrate Tyr 2000 μM): 0.7447
- AVE of Repeat 1-3, sensor signal with ligand (Supplementary Fig. 7 c) [2]: 11224.3
- fluorescence response of GECFINDER to each substrate, AVE of 3 repeats [2]: -0.01776
